Assay results from article PMC10257182, “Discovery of senolytics using machine learning” (Nature Communications, 2023).

System: non-senescent control A549 cells
Experiment: Nuclei count senolytic assay, TIS model, non-senescent control cells
Assay type: cell-based, human
Settings: Control cells, mean; for viability at 10 µM / viability at 4.68 µM / viability at 2.19 µM / viability at 1 µM / viability at 0.468 µM / viability at 0.219 µM / viability at 0.1 µM / viability at 0.0468 µM / viability at 0.0219 µM / viability at 0.01 µM: Homo sapiens, A549, read-out: Mean % Cell Survival
Experimental: We performed a second validation of the effectiveness of our machine learning models using a different stressor. We focused on therapy-induced senescence (TIS, Supplementary Fig. 6a), where human epithelial cancerous cells (A549) were induced to become senescent by addition of etoposide. Cells were treated with 100 μM etoposide for 48 h, followed by another three days of exposure to media in standard conditions.
We performed experimental validation of the compounds with z-score > 8 (Fig. 2e). […] We employed two cellular models of senescence: one of OIS and a second one of TIS. For the OIS case, we utilised IMR90 ER:RAS cells with 4-OHT at 100 nM. […] For the TIS model, we used A549 cells with etoposide at 100 μM. The exposure of the cells to etoposide lasted 48 h, after which period the cells were cultivated for a further three days with normal media.
IMR90 (CCL-186) human foetal lung fibroblasts and A549 (CCL-185) human lung adenocarcinoma cells were obtained from the American Type Culture Collection (ATCC, Manassas, VA). The cell lines were confirmed to be mycoplasma negative (Lonza MycoAlert, cat #LT07-118). IMR90 ER:RAS is a derivative of IMR90 cells expressing a switchable version of oncogenic H-Ras[84]. IMR90 ER:RAS and A549 cells were maintained in Dulbecco’s Modified Eagle Medium (DMEM, ThermoFisher) supplemented with foetal bovine serum (10%), L-glutamine (2 mM, ThermoFisher), and antibiotic-antimycotic solution (1%, ThermoFisher) and incubated under standard tissue culture conditions (37 °C and 5% CO2). For induction of the senescent phenotype, IMR90-ER:RAS cells were cultured in hydroxytamoxifen (4-OHT) (Sigma) added media at 100 nM final concentration. IMR90 were kept in culture for over 27 passages for replicative senescence. Cells were tested for mycoplasma on a regular basis.
Cells were seeded (50 μL per well) into 384-well plates (IMR90 ER:RAS cells in Nunc Optical Bottom Polybase Microplates [#142761, Thermo Scientific, Rochester, NY] and A549 cells in CELLSTAR Cell Culture Microplates [#781091, Greiner Bio-One, Kremsmünster, Austria]). Cells were incubated under standard tissue culture conditions for 24 h before the addition of compounds. Passage 14 IMR90 ER:RAS cells were seeded at 1300 cells per well in the control condition, and at 1600 cells per well in the senescent case. Passage 34 A549 cells were seeded at 7000 cells per well in the control condition, and at 10,000 cells per well in the senescent case.
Dose response plates were prepared with a DMSO control and a 10-point […] concentration range, and added to the compounds using a D300e digital dispenser (Tecan Trading AG, Switzerland) at a final concentration of between 10 μM and 10 nM. Every screened condition was carried out in triplicate. After 72 h of incubation with exposure to the compounds, cells were fixed by the addition of an equal volume of formaldehyde (8%, 50 μL; #BP531-500, Fisher Bioreagents, Fisher Scientific, Loughborough, Leicestershire) to the existing media, incubated at room temperature (30 min), and washed three times in phosphate-buffered saline (PBS). Cells were then permeabilised in Triton-X100 (0.1%, 50 μL) and incubated at room temperature (30 min) followed by three more washes with PBS.
Cells were stained with Hoechst 33342 for nuclei count (excitation/emission wavelength at 387/447 […], DAPI channel, original concentration at 10 mg/ml, final concentration at 2 μg/ml; H1399, Molecular Probes, Eugene, OR). The staining solution was prepared in bovine serum albumin solution (10%). The staining solution was added to each well (30 μL) and incubated in the dark at room temperature (30 min), followed by three washes with PBS and no final aspiration. Plates were foil sealed.
Plates were imaged on an ImageXpress micro XLS (Molecular Devices, Eugene, OR) equipped with a robotic plate loader (Scara4, PAA, UK).

| SMILES | viability at 10 µM (log (dose) [M] -5) | viability at 4.68 µM (log (dose) [M] -5.33) | viability at 2.19 µM (log (dose) [M] -5.66) | viability at 1 µM (log (dose) [M] -6) | viability at 0.468 µM (log (dose) [M] -6.33) | viability at 0.219 µM (log (dose) [M] -6.66) | viability at 0.1 µM (log (dose) [M] -7) | viability at 0.0468 µM (log (dose) [M] -7.33) | viability at 0.0219 µM (log (dose) [M] -7.66) | viability at 0.01 µM (log (dose) [M] -8) | Mean % Cell Survival (log (dose) [M] -5) | Mean % Cell Survival (log (dose) [M] -5.33) | Mean % Cell Survival (log (dose) [M] -5.66) | Mean % Cell Survival (log (dose) [M] -6) | Mean % Cell Survival (log (dose) [M] -6.33) | Mean % Cell Survival (log (dose) [M] -6.66) | Mean % Cell Survival (log (dose) [M] -7) | Mean % Cell Survival (log (dose) [M] -7.33) | Mean % Cell Survival (log (dose) [M] -7.66) | Mean % Cell Survival (log (dose) [M] -8) |
| --- | --- | --- | --- | --- | --- | --- | --- | --- | --- | --- | --- | --- | --- | --- | --- | --- | --- | --- | --- | --- |
| COC[C@H]1C[C@@H](c2nc(-c3ccc4c(c3)COc3cc5c(ccc6nc([C@@H]7CC[C@H](C)N7C(=O)[C@@H](NC(=O)OC)C(C)C)[nH]c65)cc3-4)c[nH]2)N(C(=O)[C@H](NC(=O)OC)c2ccccc2)C1 [Velpatasvir, velpatasvir, reference compound] | 80.9% | 84.4% | 80.3% | 52.9% | 93.4% | 28.7% | 88.2% | 89.2% | 92.1% | 96.1% | – | – | – | – | – | – | – | – | – | – |
| CO[C@H]1C[C@@H]2CC[C@@H](C)[C@@](O)(O2)C(=O)C(=O)N2CCCC[C@H]2C(=O)O[C@H]([C@H](C)C[C@@H]2CC[C@H](n3cnnn3)[C@H](OC)C2)CC(=O)[C@H](C)/C=C(\C)[C@@H](O)[C@@H](OC)C(=O)[C@H](C)C[C@H](C)/C=C/C=C/C=C/1C [Zotarolimus, zotarolimus, reference compound] | 84.8% | 92.5% | 84.4% | 76.7% | 92.9% | 91% | 95.4% | 98.8% | 96.8% | 109% | – | – | – | – | – | – | – | – | – | – |
| CO[C@H]1C[C@@H]2CC[C@@H](C)[C@@](O)(O2)C(=O)C(=O)N2CCCC[C@H]2C(=O)O[C@H]([C@H](C)C[C@@H]2CC[C@@H](OCCO)[C@H](OC)C2)CC(=O)[C@H](C)/C=C(\C)[C@@H](O)[C@@H](OC)C(=O)[C@H](C)C[C@H](C)/C=C/C=C/C=C/1C [Everolimus, everolimus, reference compound] | 106% | 103% | 103% | 102% | 67.5% | 103% | 102% | 106% | 105% | 108% | – | – | – | – | – | – | – | – | – | – |
| C=Cc1c(C)c2cc3nc(cc4[nH]c(cc5nc(cc1[nH]2)C(C)=C5CCC(=O)O)c(CCC(=O)OC)c4C)[C@@]1(C)C3=CC=C(C(=O)OC)[C@H]1C(=O)OC [Verteporfin, verteporfin, reference compound] | – | – | – | – | – | – | – | – | – | – | 113.771% | 108.79% | 94.7872% | 92.365% | 96.0501% | 101.194% | 90.846% | 108.359% | 100.589% | 97.9379% |
| CC(C)=CCc1c(O)cc2oc3cc(O)c(O)c(CC=C(C)C)c3c(=O)c2c1O [Gamma mangostin, gamma mangostin] | – | – | – | – | – | – | – | – | – | – | 93.7374% | 87.8038% | 85.4347% | 84.7862% | 88.6728% | 87.417% | 92.9654% | 92.7713% | 95.9525% | 100.153% |
| O=c1c(O)c(-c2ccc(O)cc2)oc2c(O)c(O)cc(O)c12 [Herbacetin, herbacetin] | 95.4% | 61.9% | 89.3% | 98.7% | 110% | 94.4% | 93.1% | 91.6% | 96.1% | 96.9% | – | – | – | – | – | – | – | – | – | – |
